Literature values in patent US8329142B2, “Compounds, compositions and methods for medical imaging of Parkinson's disease” (priority 2003, dated 2012).

Assays:
[1] = biological target: T1, Aβ(1-40) (Homo sapiens, UniProt P05067)
[2] = intra-venous (IV) and oral administration
[3] = biological target: T1, Aβ(1-40); conditions: in vitro
[4] = biological target: Aβ(1-28) (Homo sapiens, UniProt P05067); conditions: computer-based molecular modeling
Aβ(1-28), sequence (P05067 672-699): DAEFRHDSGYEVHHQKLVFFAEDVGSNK

T1 sequence (P05067 672-711 limits assumed): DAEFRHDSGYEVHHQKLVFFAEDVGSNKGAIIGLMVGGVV

Compound: [12CH3][14N+]([12CH3])([12CH3])CC[16O][31P](=[16O])([16OH])[16O]CC([16OH])C[16OH] (stereo not shown) [GPC, glycerophosphocholine]
- reduction of α-helical content of Aβ(1-40) [1]: 15%
- brain penetration [2]: enters the brain
- enhancement of Aβ(1-40) aggregation [3]: over 400%
- binding to Aβ(1-28) peptide site (pocket Lys28, Asp23, Lys16) [4]: bind specifically
